Results as given in patent publication US9434688B2, “Indole derivatives as selective androgen receptor modulators (SARMS)” (Janssen Pharmaceutica, NV, priority 2004, dated 2016).
Where “and” joins values, the source holds several entries; their conditions need not be identical. Equal entries are not always repeated.

Legend:
androgen receptor [1] = molecular target: T1, androgen receptor (Rattus norvegicus, UniProt P15207); experiment: Androgen Receptor Binding Using Rat Ventral Prostate Cytosol; parameters: from tissue; host or cells: ventral prostate cytosol of castrated male Sprague Dawley or Wistar rats; details: 3 µM
T1 sequence (P15207 1-902): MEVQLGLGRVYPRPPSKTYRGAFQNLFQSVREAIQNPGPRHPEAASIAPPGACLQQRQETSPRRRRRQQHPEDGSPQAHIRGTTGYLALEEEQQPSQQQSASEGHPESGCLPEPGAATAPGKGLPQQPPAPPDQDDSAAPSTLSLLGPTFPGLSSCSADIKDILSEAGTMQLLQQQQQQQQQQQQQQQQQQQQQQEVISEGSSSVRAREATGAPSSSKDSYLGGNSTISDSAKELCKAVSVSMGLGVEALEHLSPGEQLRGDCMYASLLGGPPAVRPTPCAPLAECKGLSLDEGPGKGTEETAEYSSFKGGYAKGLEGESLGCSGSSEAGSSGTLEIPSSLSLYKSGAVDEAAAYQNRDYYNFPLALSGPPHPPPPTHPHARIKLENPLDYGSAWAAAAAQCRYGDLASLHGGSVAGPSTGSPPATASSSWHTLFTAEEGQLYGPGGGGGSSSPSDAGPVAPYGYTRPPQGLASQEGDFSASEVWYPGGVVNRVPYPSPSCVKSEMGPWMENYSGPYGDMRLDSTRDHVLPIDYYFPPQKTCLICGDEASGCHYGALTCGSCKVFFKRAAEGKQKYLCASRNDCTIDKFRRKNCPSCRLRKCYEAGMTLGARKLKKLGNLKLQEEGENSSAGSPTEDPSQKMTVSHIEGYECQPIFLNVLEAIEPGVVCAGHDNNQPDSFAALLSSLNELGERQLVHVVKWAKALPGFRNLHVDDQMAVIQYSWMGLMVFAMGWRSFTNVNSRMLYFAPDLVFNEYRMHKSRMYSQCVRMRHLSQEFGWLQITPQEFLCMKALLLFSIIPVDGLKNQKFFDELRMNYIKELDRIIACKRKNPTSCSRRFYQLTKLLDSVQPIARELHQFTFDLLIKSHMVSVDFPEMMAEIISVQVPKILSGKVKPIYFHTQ

androgen receptor [2] = molecular target: T1, androgen receptor; experiment: L929 Androgen Receptor Functional Assay, Adenovirus Transduction; type: cell-based; parameters: expressed in transfected cells; host or cells: L929 cells transduced with adenovirus AdEasy+rAR; details: concentration of 3000 nM, 3 µM
Procedure: L929 cells were plated in 96-well plates at 20,000 cells per well, in DMEM/F12 (GIBCO) containing 10% (v/v) charcoal-treated fetal bovine serum (Hyclone) and lacking phenol red. The plates were then incubated overnight at 37° C. in 5% (v/v) humidified CO2.
Test compound dilutions were prepared in 100% (v/v) DMSO, if necessary. Each dilution was made to 1250× the final desired assay concentration.
First, 2 mL of DMEM/F12 lacking phenol red was pipetted into the wells of a 2-mL 96-well assay block. Next, 4 μL of the 1250× test compound dilutions were pipetted into each well of the assay block. The mixtures within the well were then carefully mixed by pipette.
In a 15 mL or 50 mL sterile centrifuge tube, a 2.5 nM (2.5×) dilution of R1881 (methyl-trienolone) in DMEM/F12 lacking phenol red was prepared.
In a second 15 mL or 50 mL centrifuge tube a solution containing an equal volume of DMEM to the first and an equal volume of 100% (v/v) DMSO to the volume of R1881 used in the first tube was prepared.
In a 15 mL or 50 mL sterile centrifuge tube, a dilution in DMEM/F12 of the adenovirus AdEasy+rAR at an moi of 1:500 per well was prepared.
The medium was removed from the 96-well plates by inversion and dried, inverted, very briefly. As soon as possible after medium removal, 40 μL of the diluted unlabeled test compound was added to each well, in duplicate. To each well designated for antagonist testing was added 40 μL of the 2.5 nM R1881 dilution to the wells for antagonist testing. To each well designated for agonist testing was added 40 μL of the DMSO dilution. Then 20 μL of the diluted adenovirus were added to all wells. The plates were incubated for 48 hours at 37° C. in 5% (v/v) humidified CO2.
To each well was added 100 μL of Steady-Glo luciferase assay substrate (Promega) and the plates were placed on a rotary shaker for 1 min. The plates were then incubated at room temperature in the dark for one hour. The contents of each well were then transferred to a white microtiter plate (Packard) and read on a Luminoskan Ascent (Thermo Lab Systems).
L929 AR percent activity was determined by testing dilutions of the test compound using a concentration of 3000 nM unless otherwise noted. L929 percent inhibition was determined by testing dilutions of the test compound using a concentration of 3000 nM. […] Luciferase activity per well were measured and EC50s and IC50s determined by linear regression.

## CCSCC(O)c1cc2cc([N+](=O)[O-])c(C(F)(F)F)cc2[nH]1 (racemic) [compound 158]
Androgen receptor [1]
  % Inhibition: 52%
Androgen receptor [2]; L929 agonist testing
  % Activity: 3% and 2%
Androgen receptor [2]; L929 antagonist testing with R1881
  % Inhibition: 21% and 29%
